Reference: paper PMC8123576 (International Journal of Molecular Sciences, 2021)

Key:
[1] = system: aflatoxin accumulation by A. flavus; assay: microbe, parasite or virus in culture; assay type: cell-based, Aspergillus flavus
[2] = system: A. flavus; assay: microbe, parasite or virus in culture; assay type: cell-based, Aspergillus flavus
[3] = Aspergillus flavus, read-out: A.I. (%) (aflatoxin accumulation inhibition)
[4] = Aspergillus flavus, 100 µM, read-out: G.I. (%) (A. flavus growth inhibition)

| Molecule | A.I. (%) (aflatoxin accumulation inhibition) ([1]; 100 µM) | G.I. (%) (A. flavus growth inhibition) ([2]; 100 µM) | G.I. (%) (A. flavus growth inhibition) ([2]; 50 µM) | A.I. (%) (aflatoxin accumulation inhibition) ([1]; 50 µM) | also measured |
| --- | --- | --- | --- | --- | --- |
| CC(=NNC(N)=S)c1ccco1 [2-acfurTS, 2-acetylfuranthiosemicarbazone] |  |  |  |  | maximum aflatoxin accumulation inhibition [1]: ≤ 28.7%; impact on fungal growth ([2]; 10 to 100 µM, complexes compared with their ligand): modest inhibitory activity |
| CC(C)c1cccc(C=NN(C)C(N)=S)c1 [3‐isopropyl benzaldehyde‐2‐methyl‐thiosemicarbazone] | 62,7% | 70,6% |  |  |  |
| NC(=S)N/N=C\C=C\c1ccccc1 [Cinnamaldehyde thiosemicarbazone] |  |  |  |  | inhibition at 50 µM [1, 3]: 73.1%; inhibition at 100 µM [1, 3]: 79%; inhibition at 100 µM [2, 4]: 56% |
| CC(C)=CCC/C(C)=C/C=N/NC(N)=S [Citral thiosemicarbazone] |  | 57,0% |  |  |  |
| NC(=S)NN=C1CCCCC1 [Cyclohexanone thiosemicarbazone] |  | 95,0% | 80,0% |  |  |
| CCCCCCCCCC=NNC(N)=S [Decanal thiosemicarbazone] | 62,0% | 96,0% | 96,0% |  |  |
| NC(=S)NN=c1cc(-c2ccccc2)oc2ccccc12 [Flavone thiosemicarbazone] |  | 100% | 100% |  |  |
| O=c1cc(-c2ccccc2)oc2ccccc12 [Flavone] |  |  |  |  | inhibition at 50 µM ([2]; Aspergillus flavus, 50 µM, read-out: G.I. (%) (A. flavus growth inhibition)): 66%; inhibition at 100 µM [2, 4]: 83% |
| CCCCCCCCC=NNC(N)=S [Nonanal thiosemicarbazone] | 100% | 100% | 95,0% | 91,0% |  |
| CCCCCCCC=NNC(N)=S [Octanal thiosemicarbazone] | 96,0% | 93,0% | 82,0% | 76,0% |  |
| C=C(C)C1CC=C(C=NNC(N)=S)CC1 (centres unmarked) [Perillaldehyde thiosemicarbazone] | 87,3% | 73,5% |  | 78,0% |  |
| Cc1ccc(S(=O)(=O)OCc2ccc3c(c2)C(=O)c2ccccc2C3=O)cc1 [Tosylate ‐2‐methyleneanthraquinone] |  | 87,0% | 66,0% |  |  |
| CCCCCCCCCCC=NNC(N)=S [Undecanal thiosemicarbazone] | 93,0% | 62,0% | 78,0% | 72,0% |  |
| Acetylthiophene bisthiosemicarbazone |  | 65,0% |  |  |  |
| Bisvanillin thiosemicarbazone | 61,0% | 57,0% |  |  |  |
| Cu(I) chloroaqua flavone thiosemicarbazone |  | 79,0% | 60,0% |  |  |
| Cu(II) 2,3,4‐trimethoxybenzaldehyde bisthiosemicarbazonate |  |  | 55,0% |  |  |
| Cu(II) 2,4‐decadienal bisthiosemicarbazonate |  | 80,0% | 91,0% |  |  |
| Cu(II) 2‐isopropyl benzaldehyde‐2‐methyl‐thiosemicarbazone di acetate | 86,7% | 95% | 90,0% | 71,4% |  |
| Cu(II) 3,4,5‐trimethoxybenzaldehyde bisthiosemicarbazonate | 76,0% | 54,0% |  |  |  |

| Molecule | A.I. (%) (aflatoxin accumulation inhibition) ([1]; 100 µM) | G.I. (%) (A. flavus growth inhibition) ([2]; 100 µM) | G.I. (%) (A. flavus growth inhibition) ([2]; 50 µM) | A.I. (%) (aflatoxin accumulation inhibition) ([1]; 50 µM) | also measured |
| --- | --- | --- | --- | --- | --- |
| Cu(II) 3‐phenylpropanal bisthiosemicarbazonate |  | 68,0% | 69,0% |  |  |
| Cu(II) 4,7'‐dihydroxyflavone bisthiosemicarbazonate |  | 100% | 100% |  |  |
| Cu(II) Quinolinecarboxaldehyde bisthiosemicarbazonate | 88,0 | 60,7% |  | 55,7% |  |
| Cu(II) apocynin bisthiosemicarbazonate | 72,0% | 72,0% | 61,0% | 52,0% |  |
| Cu(II) bisvanillin thiosemicarbazonate | 77,0% | 65,5% |  | 53,0% |  |
| Cu(II) cinnamaldehyde bisthiosemicarbazonate |  |  | 58,0% |  |  |
| Cu(II) fenchone bisthiosemicarbazonate | 84,0% | 57,0% |  | 62,0% |  |
| Cu(II) jasmone bisthiosemicarbazonate | 97,0% | 74,3% |  | 78,0% |  |
| Cu(II) nonanal bisthiosemicarbazonate | 100% | 84,1% |  | 90,0% |  |
| Cu(II) syringaldehyde bisthiosemicarbazonate | 61,0% | 61,0% |  |  |  |
| Cu(II)undecanal bisthiosemicarbazonate | 96,0% | 94,0% | 60,4% | 84,8% |  |
| Dicyclohexanone thiosemicarbazone |  | 99,00% | 90,0% |  |  |
| Mn(II) 2‐acetylthiophene bisthiosemicarbazonate | 92,0% | 53,0% |  | 61,0% |  |
| Ni(II) Cinnamaldehyde bisthiosemicarbazonate | 100% | 100% | 87,9% | 95,0% |  |
| Ni(II) Cuminaldehyde bisthiosemicarbazonate | 96,0% | 90,0% | 84,0% | 91,5% |  |
| Ni(II) citronellal bisthiosemicarbazonate | 82,1% | 58,9% |  |  |  |
| Plumbagin thiosemicarbazone | 83,0% | 61,9% |  |  |  |
| Zn(II) (E)‐1‐(4‐methoxyphenyl)‐1‐pentene‐3‐one‐bis 3‐thiosemicarbazonate |  | 89,0% | 86,0% |  |  |
| Zn(II) Cinnamaldehyde bisthiosemicarbazonate | 100% | 76,0% | 56,0% | 99,0% |  |
